Assay results published in ChEMBL document CHEMBL3779897, “Novel quinoline-derived mTOR inhibitors with remarkable enzymatic and cellular activities: design, synthesis and biological evaluation” (Medchemcomm, 2016).
pIC50: −log10 of the molar value. The source made the active and inactive calls. No cut-off for these calls is given here.

Key:
cells [1] = conditions: Homo sapiens, HCT-116, 72 h
cells [2] = conditions: Homo sapiens, PC-3, 72 h
mTORC1 (Homo sapiens) [3] = molecular target: T1, mTORC1 (Homo sapiens) (UniProt P42345+Q8N122+Q9BVC4); assay: Inhibition of mTORC1 in human MCF7 cells assessed as downregulation of S6 Ser235 phosphorylation at 0.1 uM after 2 hrs by Western blot analysis; assay type: cell-based
T1 sequence (Q8N122 whole entry, looked up, other chains not shown): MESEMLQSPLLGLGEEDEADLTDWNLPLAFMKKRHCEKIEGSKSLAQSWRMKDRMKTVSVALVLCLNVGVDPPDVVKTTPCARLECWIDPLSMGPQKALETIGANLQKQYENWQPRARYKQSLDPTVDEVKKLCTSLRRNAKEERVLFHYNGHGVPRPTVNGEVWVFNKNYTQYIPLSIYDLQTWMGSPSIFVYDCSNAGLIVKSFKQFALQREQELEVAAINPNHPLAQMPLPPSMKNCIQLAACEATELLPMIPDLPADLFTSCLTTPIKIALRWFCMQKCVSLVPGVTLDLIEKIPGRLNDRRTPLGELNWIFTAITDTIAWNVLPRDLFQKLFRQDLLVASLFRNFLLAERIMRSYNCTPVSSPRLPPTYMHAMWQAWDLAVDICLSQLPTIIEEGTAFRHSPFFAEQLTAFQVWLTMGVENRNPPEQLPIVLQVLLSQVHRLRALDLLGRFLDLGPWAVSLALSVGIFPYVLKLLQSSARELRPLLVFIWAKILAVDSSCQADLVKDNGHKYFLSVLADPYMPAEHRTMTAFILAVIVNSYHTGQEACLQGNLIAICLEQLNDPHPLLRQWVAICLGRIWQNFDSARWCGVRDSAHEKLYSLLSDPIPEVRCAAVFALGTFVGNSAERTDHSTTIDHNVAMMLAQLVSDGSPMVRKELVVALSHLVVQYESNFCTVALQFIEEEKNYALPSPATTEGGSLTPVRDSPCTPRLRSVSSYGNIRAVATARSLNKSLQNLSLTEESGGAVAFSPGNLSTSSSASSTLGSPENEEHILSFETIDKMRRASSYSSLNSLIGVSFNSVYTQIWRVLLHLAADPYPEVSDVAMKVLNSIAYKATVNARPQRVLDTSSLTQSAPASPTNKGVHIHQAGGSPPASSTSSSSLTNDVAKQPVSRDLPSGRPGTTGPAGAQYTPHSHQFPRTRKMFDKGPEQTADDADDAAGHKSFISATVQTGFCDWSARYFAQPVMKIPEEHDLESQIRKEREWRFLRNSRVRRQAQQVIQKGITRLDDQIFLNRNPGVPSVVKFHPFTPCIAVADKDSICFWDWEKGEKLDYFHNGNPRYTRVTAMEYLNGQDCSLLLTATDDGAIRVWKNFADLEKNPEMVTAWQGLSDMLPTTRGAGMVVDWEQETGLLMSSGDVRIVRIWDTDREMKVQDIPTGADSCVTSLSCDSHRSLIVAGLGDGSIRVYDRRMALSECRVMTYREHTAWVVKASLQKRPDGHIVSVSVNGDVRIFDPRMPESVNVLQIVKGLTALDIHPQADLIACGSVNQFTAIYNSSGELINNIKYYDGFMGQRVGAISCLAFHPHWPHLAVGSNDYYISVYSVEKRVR
T1 sequence (Q9BVC4 whole entry, looked up, other chains not shown): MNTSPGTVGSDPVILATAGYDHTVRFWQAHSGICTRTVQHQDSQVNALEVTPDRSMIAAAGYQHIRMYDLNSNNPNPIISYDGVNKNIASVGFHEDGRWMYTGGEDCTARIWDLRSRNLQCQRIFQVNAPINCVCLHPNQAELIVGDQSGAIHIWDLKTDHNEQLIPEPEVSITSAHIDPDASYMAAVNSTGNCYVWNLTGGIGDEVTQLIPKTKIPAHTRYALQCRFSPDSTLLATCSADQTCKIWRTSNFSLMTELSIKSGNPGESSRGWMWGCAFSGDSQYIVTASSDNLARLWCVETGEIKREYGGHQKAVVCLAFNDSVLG

MCF7 [4] = assay: cells; conditions: Homo sapiens, MCF7, 72 h
[5] = molecular target: T2, Serine/threonine-protein kinase mTOR (Homo sapiens, UniProt P42345); assay: Inhibition of human mTOR using ULight-4E-BP1 peptide as substrate after 1 hr by Lance ultra assay
[6] = molecular target: T3, Phosphatidylinositol 4,5-bisphosphate 3-kinase catalytic subunit beta isoform (Homo sapiens, UniProt P42338); assay: Inhibition of PI3Kbeta (unknown origin) after 1 hr by ADP-Glo luminescent assay
Target sequence in this assay (P42338 whole entry, canonical isoform): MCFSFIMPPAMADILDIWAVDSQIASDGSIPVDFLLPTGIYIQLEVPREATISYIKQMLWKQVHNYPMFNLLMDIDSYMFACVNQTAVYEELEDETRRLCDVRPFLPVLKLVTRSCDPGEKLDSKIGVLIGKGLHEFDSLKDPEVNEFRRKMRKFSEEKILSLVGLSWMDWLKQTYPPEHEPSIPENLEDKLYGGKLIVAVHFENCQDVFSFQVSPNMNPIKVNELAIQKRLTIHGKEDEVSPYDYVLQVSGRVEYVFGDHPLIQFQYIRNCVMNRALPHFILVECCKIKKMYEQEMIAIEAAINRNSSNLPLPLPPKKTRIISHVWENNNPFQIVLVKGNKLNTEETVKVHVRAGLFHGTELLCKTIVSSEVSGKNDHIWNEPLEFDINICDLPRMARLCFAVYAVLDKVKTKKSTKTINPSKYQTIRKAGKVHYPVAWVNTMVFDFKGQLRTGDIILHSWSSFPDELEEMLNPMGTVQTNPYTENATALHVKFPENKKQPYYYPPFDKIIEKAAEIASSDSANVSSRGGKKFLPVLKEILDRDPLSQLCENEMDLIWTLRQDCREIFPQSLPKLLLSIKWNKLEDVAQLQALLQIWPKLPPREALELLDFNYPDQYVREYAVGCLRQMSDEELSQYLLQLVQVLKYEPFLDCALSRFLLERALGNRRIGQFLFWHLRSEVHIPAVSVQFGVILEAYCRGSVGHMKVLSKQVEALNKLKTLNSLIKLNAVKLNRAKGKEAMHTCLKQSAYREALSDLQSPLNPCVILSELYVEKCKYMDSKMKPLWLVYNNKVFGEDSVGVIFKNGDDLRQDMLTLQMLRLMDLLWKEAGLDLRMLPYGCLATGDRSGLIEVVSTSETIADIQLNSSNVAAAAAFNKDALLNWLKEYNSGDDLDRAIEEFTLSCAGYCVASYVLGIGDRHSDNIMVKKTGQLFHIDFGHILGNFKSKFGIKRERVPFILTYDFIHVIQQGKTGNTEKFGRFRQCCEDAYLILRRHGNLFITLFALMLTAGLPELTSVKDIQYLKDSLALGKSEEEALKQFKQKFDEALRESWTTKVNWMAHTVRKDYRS

[7] = molecular target: T4, Phosphatidylinositol 4,5-bisphosphate 3-kinase catalytic subunit alpha isoform (Homo sapiens, UniProt P42336); assay: Inhibition of human recombinant PI3Kalpha using PIP2 as substrate after 1 hr by Kinase-Glo luminescent assay
T4 sequence (P42336 whole entry, canonical isoform): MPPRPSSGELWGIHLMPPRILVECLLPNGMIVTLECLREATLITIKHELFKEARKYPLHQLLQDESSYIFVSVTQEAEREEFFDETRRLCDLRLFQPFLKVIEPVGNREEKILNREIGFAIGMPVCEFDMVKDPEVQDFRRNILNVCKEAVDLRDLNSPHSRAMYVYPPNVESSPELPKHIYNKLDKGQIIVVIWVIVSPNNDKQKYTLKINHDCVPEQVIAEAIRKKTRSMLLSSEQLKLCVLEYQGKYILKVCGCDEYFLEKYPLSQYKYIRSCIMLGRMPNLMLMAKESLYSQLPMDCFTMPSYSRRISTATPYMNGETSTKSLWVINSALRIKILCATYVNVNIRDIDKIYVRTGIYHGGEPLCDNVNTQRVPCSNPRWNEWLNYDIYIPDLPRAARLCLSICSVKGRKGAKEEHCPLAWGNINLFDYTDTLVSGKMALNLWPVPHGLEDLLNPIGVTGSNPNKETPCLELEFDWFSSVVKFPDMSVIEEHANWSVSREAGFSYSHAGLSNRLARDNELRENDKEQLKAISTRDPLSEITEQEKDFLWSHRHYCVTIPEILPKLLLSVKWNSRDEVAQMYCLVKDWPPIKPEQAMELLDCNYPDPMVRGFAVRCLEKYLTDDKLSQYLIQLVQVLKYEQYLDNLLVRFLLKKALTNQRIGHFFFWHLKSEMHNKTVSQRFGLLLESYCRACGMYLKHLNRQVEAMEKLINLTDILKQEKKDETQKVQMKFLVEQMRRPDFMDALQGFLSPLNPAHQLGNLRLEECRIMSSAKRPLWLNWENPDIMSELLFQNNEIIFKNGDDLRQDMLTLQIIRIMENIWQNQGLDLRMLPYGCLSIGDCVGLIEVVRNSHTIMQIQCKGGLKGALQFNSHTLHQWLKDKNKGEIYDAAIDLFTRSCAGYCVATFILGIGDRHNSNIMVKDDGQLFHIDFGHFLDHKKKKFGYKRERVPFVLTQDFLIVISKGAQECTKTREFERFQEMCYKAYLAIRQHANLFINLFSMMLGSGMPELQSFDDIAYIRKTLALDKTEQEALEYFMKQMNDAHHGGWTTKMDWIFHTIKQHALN

MCF7 [8] = assay: Inhibition of mTORC2 in human MCF7 cells assessed as downregulation of Akt Ser473 phosphorylation at 0.5 uM after 2 hrs by Western blot analysis; assay type: cell-based
[9] = molecular target: T5, Phosphatidylinositol 4,5-bisphosphate 3-kinase catalytic subunit delta isoform (Homo sapiens, UniProt O00329); assay: Inhibition of PI3Kdelta (unknown origin) after 1 hr by ADP-Glo luminescent assay
T5 sequence (O00329 whole entry): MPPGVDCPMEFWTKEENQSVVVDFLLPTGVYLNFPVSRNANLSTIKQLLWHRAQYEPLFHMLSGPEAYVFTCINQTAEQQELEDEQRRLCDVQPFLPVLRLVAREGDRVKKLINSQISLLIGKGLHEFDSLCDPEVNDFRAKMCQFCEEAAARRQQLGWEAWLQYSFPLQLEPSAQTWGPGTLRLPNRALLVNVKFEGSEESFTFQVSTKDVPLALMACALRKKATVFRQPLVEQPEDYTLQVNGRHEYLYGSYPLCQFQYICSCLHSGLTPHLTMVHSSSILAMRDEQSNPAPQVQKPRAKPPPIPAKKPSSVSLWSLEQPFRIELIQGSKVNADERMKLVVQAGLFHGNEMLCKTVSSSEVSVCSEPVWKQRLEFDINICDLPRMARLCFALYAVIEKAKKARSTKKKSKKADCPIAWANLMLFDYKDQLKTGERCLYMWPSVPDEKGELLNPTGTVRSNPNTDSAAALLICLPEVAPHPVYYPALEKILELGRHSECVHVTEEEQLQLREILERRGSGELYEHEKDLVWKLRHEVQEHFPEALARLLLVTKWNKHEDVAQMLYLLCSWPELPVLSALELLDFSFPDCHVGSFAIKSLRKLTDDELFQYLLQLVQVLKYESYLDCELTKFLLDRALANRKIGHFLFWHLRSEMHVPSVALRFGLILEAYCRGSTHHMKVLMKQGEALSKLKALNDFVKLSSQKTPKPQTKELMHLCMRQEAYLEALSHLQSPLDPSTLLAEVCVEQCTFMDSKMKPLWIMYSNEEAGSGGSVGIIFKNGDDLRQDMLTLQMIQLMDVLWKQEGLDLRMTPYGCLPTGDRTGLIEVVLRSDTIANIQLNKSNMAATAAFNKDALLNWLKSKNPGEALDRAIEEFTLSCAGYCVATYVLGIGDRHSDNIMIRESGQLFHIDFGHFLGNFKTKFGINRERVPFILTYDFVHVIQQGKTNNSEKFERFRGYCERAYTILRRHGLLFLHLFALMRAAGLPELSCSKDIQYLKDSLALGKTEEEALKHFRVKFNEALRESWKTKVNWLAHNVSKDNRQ

MCF7 [10] = assay: Inhibition of mTORC2 in human MCF7 cells assessed as downregulation of Akt Ser473 phosphorylation at 0.1 uM after 2 hrs by Western blot analysis; assay type: cell-based
mTORC1 (Homo sapiens) [11] = molecular target: T1, mTORC1 (Homo sapiens); assay: Inhibition of mTORC1 in human MCF7 cells assessed as downregulation of S6 Ser235 phosphorylation at 0.5 uM after 2 hrs by Western blot analysis; assay type: cell-based
[12] = molecular target: T6, Phosphatidylinositol 4,5-bisphosphate 3-kinase catalytic subunit gamma isoform (Homo sapiens, UniProt P48736); assay: Inhibition of human PI3Kgamma after 1 hr by ADP-Glo luminescent assay
Target sequence in this assay (P48736 whole entry, canonical isoform): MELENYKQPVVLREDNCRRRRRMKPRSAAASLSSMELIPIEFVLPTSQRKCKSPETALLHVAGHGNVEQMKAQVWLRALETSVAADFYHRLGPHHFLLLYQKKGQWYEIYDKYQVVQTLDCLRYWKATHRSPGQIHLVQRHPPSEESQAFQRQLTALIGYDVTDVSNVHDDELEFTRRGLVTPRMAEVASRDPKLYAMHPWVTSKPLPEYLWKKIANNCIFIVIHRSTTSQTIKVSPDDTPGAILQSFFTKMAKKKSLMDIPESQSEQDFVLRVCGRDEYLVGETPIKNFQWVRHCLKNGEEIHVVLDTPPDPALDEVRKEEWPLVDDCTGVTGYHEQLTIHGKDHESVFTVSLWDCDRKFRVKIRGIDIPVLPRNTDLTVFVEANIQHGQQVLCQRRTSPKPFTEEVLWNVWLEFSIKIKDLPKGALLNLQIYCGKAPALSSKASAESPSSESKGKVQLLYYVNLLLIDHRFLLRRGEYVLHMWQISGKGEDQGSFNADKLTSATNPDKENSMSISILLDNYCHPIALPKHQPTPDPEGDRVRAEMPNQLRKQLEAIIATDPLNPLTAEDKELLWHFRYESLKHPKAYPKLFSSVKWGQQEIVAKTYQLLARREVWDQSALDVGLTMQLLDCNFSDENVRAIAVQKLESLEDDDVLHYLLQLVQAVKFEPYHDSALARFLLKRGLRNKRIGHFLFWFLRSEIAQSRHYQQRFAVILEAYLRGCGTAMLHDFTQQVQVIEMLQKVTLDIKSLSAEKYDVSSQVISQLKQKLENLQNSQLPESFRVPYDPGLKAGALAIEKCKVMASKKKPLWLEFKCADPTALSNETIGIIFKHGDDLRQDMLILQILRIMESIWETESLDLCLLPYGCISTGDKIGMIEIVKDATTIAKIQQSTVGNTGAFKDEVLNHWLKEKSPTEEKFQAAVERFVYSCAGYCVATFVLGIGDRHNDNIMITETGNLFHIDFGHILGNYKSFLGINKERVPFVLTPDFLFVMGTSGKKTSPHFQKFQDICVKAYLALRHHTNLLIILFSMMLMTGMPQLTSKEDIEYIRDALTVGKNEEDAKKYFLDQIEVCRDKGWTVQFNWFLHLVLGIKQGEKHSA

[13] = molecular target: T2, Serine/threonine-protein kinase mTOR; assay: Inhibition of human mTOR at 3000 nM using ULight-4E-BP1 peptide as substrate after 1 hr by Lance ultra assay
Liver microsome = assay: Stability in rat liver microsomes after 30 mins; assay type: ADME; conditions: 0.5 h
[14] = Stability in simulated gastric fluid after 45 mins; assay type: ADME; conditions: simulated gi fluid, 0.75 h
[15] = molecular target: T7, Phosphatidylinositol 4,5-bisphosphate 3-kinase catalytic subunit delta isoform (Homo sapiens) (UniProt O00329); assay: Inhibition of PI3Kdelta (unknown origin) at 1 uM after 1 hr by ADP-Glo luminescent assay
T7 sequence (whole entry): T5 sequence (O00329 whole entry)

[16] = molecular target: T6, Phosphatidylinositol 4,5-bisphosphate 3-kinase catalytic subunit gamma isoform; assay: Inhibition of human PI3Kgamma at 1 uM after 1 hr by ADP-Glo luminescent assay
Target sequence in this assay (P48736 whole entry, looked up, canonical isoform): as the sequence (P48736 whole entry, canonical isoform) above

[17] = Stability in simulated intestinal fluid after 45 mins; assay type: ADME; conditions: simulated gi fluid, 0.75 h
[18] = molecular target: T3, Phosphatidylinositol 4,5-bisphosphate 3-kinase catalytic subunit beta isoform; assay: Inhibition of PI3Kbeta (unknown origin) at 1 uM after 1 hr by ADP-Glo luminescent assay
Target sequence in this assay (P42338 whole entry, looked up, canonical isoform): as the sequence (P42338 whole entry, canonical isoform) above

[19] = molecular target: T4, Phosphatidylinositol 4,5-bisphosphate 3-kinase catalytic subunit alpha isoform; assay: Inhibition of human recombinant PI3Kalpha using PIP2 as substrate at 1 uM after 1 hr by Kinase-Glo luminescent assay

Row | pIC50 (cells [1]) | pIC50 (cells [2]) | pIC50 (MCF7 [4]) | SMILES | also measured
1 | < 5.00 | < 5.00 | – | CC(C)(C#N)c1ccc(Nc2c(NS(C)(=O)=O)cnc3ccc(-c4cnc5ccccc5c4)cc23)cc1 | –
2 | < 5.00 | < 5.00 | – | CC(C)(C#N)c1ccc(Nc2c(N(S(C)(=O)=O)S(C)(=O)=O)cnc3ccc(-c4cnc5ccccc5c4)cc23)cc1 | –
3 | 6.96 | 6.77 | 7.40 | CC(=O)Nc1cnc2ccc(-c3cnc4ccccc4c3)cc2c1Nc1ccc(N2CCN(C(C)=O)CC2)c(C(F)(F)F)c1 | Activity (mTORC1 (Homo sapiens) [3]): Active; pIC50 [5]: 7.52; pIC50 [6]: < 5.30; pIC50 [7]: 5.82; Activity (MCF7 [8]): Active; pIC50 [9]: 5.68; Activity (MCF7 [10]): Active; Activity (mTORC1 (Homo sapiens) [11]): Active; pIC50 [12]: 6.30
4 | < 5.00 | < 5.00 | 6.10 | CC(=O)N1CCN(c2ccc(Nc3c(NC(=O)C(C)(C)C)cnc4ccc(-c5cnc6ccccc6c5)cc34)cc2C(F)(F)F)CC1 | –
5 | 6.37 | 6.72 | 7.22 | CC(=O)Nc1cnc2ccc(-c3cnc4ccccc4c3)cc2c1Nc1ccc(N2CCN(S(C)(=O)=O)CC2)c(C(F)(F)F)c1 | –
6 | < 5.00 | < 5.00 | 5.87 | CC(C)(C#N)c1ccc(Nc2c(NC(=O)C(F)(F)F)cnc3ccc(-c4cnc5ccccc5c4)cc23)cc1 | inhibition [13]: 92%
7 | 5.40 | 5.59 | 6.36 | CC(=O)Nc1cnc2ccc(-c3cnc4ccccc4c3)cc2c1Nc1ccc(C(C)(C)C#N)cc1 | –
8 | < 5.00 | < 5.00 | – | COc1cc(Nc2c(NC(C)=O)cnc3ccc(-c4cnc5ccccc5c4)cc23)cc(OC)c1 | pIC50 [5]: < 5.52
9 | 5.91 | 5.42 | 6.49 | O=C(Nc1cnc2ccc(-c3cnc4ccccc4c3)cc2c1Nc1ccc(N2CCNCC2)c(C(F)(F)F)c1)C(F)(F)F | –
10 | 6.44 | 6.30 | 6.96 | CC(=O)Nc1cnc2ccc(-c3cnc4ccccc4c3)cc2c1Nc1ccc(N2CCNCC2)c(C(F)(F)F)c1.Cl | pIC50 [5]: 7.66; Stability (Liver microsome): Stable; Stability [14]: Stable; inhibition [15]: 34.9%; inhibition [16]: 47.3%; Stability [17]: Stable; inhibition [18]: 1%; inhibition [19]: 42.1%
11 | 6.19 | 5.98 | 6.52 | CC(C)(C)C(=O)Nc1cnc2ccc(-c3cnc4ccccc4c3)cc2c1Nc1ccc(N2CCNCC2)c(C(F)(F)F)c1 | –
12 | < 5.00 | < 5.00 | – | CC(C)(C)C(=O)Nc1cnc2ccc(-c3cnc4ccccc4c3)cc2c1Nc1ccc(C(C)(C)C#N)cc1 | –
13 | < 5.00 | < 5.00 | – | CC(=O)Nc1cnc2ccc(-c3cnc4ccccc4c3)cc2c1Nc1ccc(C#N)cc1 | pIC50 [5]: < 5.52
14 | < 5.00 | < 5.00 | – | CC(=O)Nc1cnc2ccc(-c3cnc4ccccc4c3)cc2c1Nc1ccc(C(F)(F)F)cc1 | pIC50 [5]: < 5.52
15 | 6.85 | 6.72 | – | Cn1c(=O)n(-c2ccc(C(C)(C)C#N)cc2)c2c3cc(-c4cnc5ccccc5c4)ccc3ncc21 [DACTOLISIB] | –
16 | 5.79 | 5.46 | 6.33 | Nc1cnc2ccc(-c3cnc4ccccc4c3)cc2c1Nc1ccc(N2CCNCC2)c(C(F)(F)F)c1 | –
17 | 5.84 | 5.27 | 5.95 | CS(=O)(=O)Nc1cnc2ccc(-c3cnc4ccccc4c3)cc2c1Nc1ccc(N2CCNCC2)c(C(F)(F)F)c1 | –
